Measurements reported in patent US20140243403A1, “TREATING COLORECTAL, PANCREATIC, AND LUNG CANCER” (The General Hospital Corporation, priority 2011, published 2014).

Key:
[1] = tested on: HT29 cells expressing mutant KRAS (G12V) 4A or 4B; assay: Sensitivity of HT29 cells expressing mutant KRAS (G12V); assay type: cell-based, human; conditions: HT29 cells expressing 4A or 4B splice isoform of mutant KRAS (G12V)
Description: (D) Forced overexpression of epitope-tagged oncogenic G12V mutated RAS protein isoforms in HT29 cells and sensitivity to TAK1 pharmacological inhibition with 5Z-7-oxozeaenol. Expression levels of exogenous and endogenous Ras proteins are shown by immunoblotting with a pan-ras monoclonal antibody. NRAS/KRAS4B are HA-tagged and KRAS4A is V5-tagged.
These cell lines are insensitive to 5Z-7-oxozeaenol.

MCF10A = assay: Sensitivity of non-transformed epithelial cell line; assay type: cell-based
Procedure: (§1) (A) 5Z-7-oxozeaenol IC50 values for colorectal cancer cell lines of various genotypes as well as 2 “normal” epithelial cell lines, MCF10A and MDCK (light gray bars). Data are represented as the mean of 3 independent experiments+/−SEM.
(§2) To determine if sensitivity to TAK1 inhibition is specific to colon cancer-derived cell lines, sensitivity to 5Z-7-oxozeaenol was assessed in 5 KRAS mutant pancreatic ductal adenocarcinoma (PDAC) and 4 non-small cell lung cancer (NSCLC) cells, all of which are APC wild-type (FIG. 9B).

MDCK = assay: as above; assay type: cell-based
Procedure: as §1, §2

[2] = tested on: HCT8 and SW837 (KRAS-independent) xenografted tumors; assay: Subcutaneous xenografted tumors, KRAS-independent; assay type: in vivo, NOD/SCID mice; conditions: 15 mg/kg daily intraperitoneal
Procedure: (C) TAK1 inhibition in mice with xenografted human tumors derived from the HCT8/SW837 (KRAS-independent) and SK-CO-1/SW620 (KRAS-dependent) cell lines. Cells expressing firefly luciferase were injected subcutaneously into the flanks of […]. Tumors are shown as imaged by IVIS detection of luminescence counts (in photons/sec) following 14 days of tumor growth followed by 6 days of treatment with either 15 mg/kg 5z-7-oxozeaenol or vehicle ([…] in arachis oil), IP delivery q.d. Quantitation of tumor volume (mm^3) is plotted on the right. Tumor volume data are represented as the mean of 4 tumors in 2 mice for each group+/−SEM.
To validate the efficacy of 5Z-7-oxozeaenol in vivo, subcutaneous xenografted tumors were generated in NOD/SCID mice using four representative KRAS mutant cell lines: HCT8 and SW837 (KRAS-independent), and SK-CO-1 and SW620 (KRAS-dependent). Human colorectal cancer tumor cells were trypsinized and resuspended as single cell suspensions at 3×10^7 cells per ml in PBS. 100 μL (3×10^6 cells total) of this suspension were injected into opposite left and right flanks of NOD/SCID mice. All mice were housed in a pathogen-free environment. Tumor size was monitored daily and once tumor volume had reached approximately 200 mm^3, treatment with 5Z-7-oxozeaenol was initiated (7 to 14 days post-implantation). Mice were injected daily with 15 mg/kg 5Z-7-oxozeaenol. […]

COc1cc(O)c2c(c1)/C=C/C[C@H](O)[C@H](O)C(=O)/C=C\C[C@H](C)OC2=O [5Z-7-oxozeaenol]
reduction in the IC50 for 5Z-7-oxozeaenol [1]: 3 fold | IC50 (MCF10A): 5.5 µM | IC50 (MDCK): 22 µM | tumor response (imaging, tumor volume) [2]: no significant response
